Structures are written as SMILES.

Series [1] has as its system adhesion of rDIII on cultured hBMECs. Kind of series: Blocking of adhesion of rDIII on cultured hBMECs by peptides (immunocytochemistry). The series is classed as cell-based, human. The note with it: 5 µg (0.39 nM) rDIII pre-blocked with tenfold molar excess (3.9 nM) of peptide. Here is the method: Cells were cultured as described in Supplementary Method S1. First, concentration-dependent immunocytochemistry was performed to reveal the minimum concentration of rDIII required to detect its adhesion to the endothelial cells. Details are presented in Supplementary Method S14.
After that, the ability of peptides to block the adhesion of rDIII to the culture of hBMECs was judged. A tenfold molar excess of each peptide was incubated with rDIII for 1 h at room temperature. Pre-incubated rDIII was subsequently used in the assay. Details are described in the Supplementary Method S14. […]
Blocking of adhesion of rDIII on cultured hBMECs by peptides (immunocytochemistry). First, different concentrations of rDIII were tested to get the minimum concentration of rDIII required to detect the adhesion of the domain to the cultured hBMECs. In short, hBMECs were cultured on collagen type I (Sigma) coated coverslips in a 12-well culture plate in EBM-2 medium (Lonza) as was described in Supplementary Method S1 until 70% confluency. Cells were washed 2 times with PBS (pH 7.4) and fixed with acetone/ethanol (8:2 [v/v]) for 10 min at 4°C. Cells were washed 3 times with PBS (pH 7.4) and incubated with rDIII at different concentrations (20 µg, 15 µg, 10 µg, 5 µg, 2.5 µg, 2 µg, and 1 µg) diluted in 1 mL of PBS (pH 7.4) for 1 h at room temperature with gentle shaking. […]

The nature of series [2]: Hemolysis assay. The note with it: sheep, red blood cells (washed, in saline); 1 μM and 6 μM; 1 h and 5 h; threshold for hemolytic activity > 10%; read-out: hemolysis, maximum release of the hemoglobin. The series is classed as cell-based. Here is the method: Hemolysis assay was performed according to the method of Bender et al.[94]. Details are presented in Supplementary Method S16. […]
Assessment of the hemolytic activity. Sheep whole blood (10 mL) was centrifuged at 2000 rpm for 5 min at room temperature. The red blood cells (RBCs) were carefully separated from […]
plasma and washed 3 times with saline (0.9% NaCl). The washed RBCs were resuspended in saline (50 mL). Peptides at two different concentrations (1 µM and 6 µM) resuspended in saline solution (100 µL) were added to the RBCs suspension (100 µL). As a positive control (100% lysis), 0.1% Triton X-100 was used. Negative control (0% lysis) was prepared by adding only saline (100 µL) to the RBCs suspension (100 µL). All samples were incubated at 37°C for 1 h and 5 h. The mixtures were gently shaked every 30 min. After incubation, the RBCs were separated by centrifugation (2000 rpm for 5 min) and the supernatant (100 µL) was incubated for 30 min at ambient conditions to oxidize the hemoglobin. The absorbance of oxyhemoglobin present in the supernatant was assessed by absorption at 414 nm. The assay was performed in triplicates. The hemolysis (%) of the RBCs was calculated using the following formula: Hemolysis (%) = [(Asample - xĀ negative control) / xĀ positive control] × 100. […]
(TCID50/ml) exactly as described before1. […]

`CC[C@H](C)[C@@H]1NC(=O)[C@@H](NC(=O)[C@H](C)N)CSSC[C@@H](C(=O)NCC(=O)NCC(=O)NCC(=O)N[C@@H](CO)C(=O)O)NC(=O)[C@H](C)NC(=O)[C@H](CCCNC(=N)N)NC(=O)[C@H]([C@@H](C)O)NC(=O)[C@H](CO)NC(=O)[C@H](CO)NC(=O)[C@H](Cc2c[nH]cn2)NC1=O` [CP4, CIHSSTRAC]: the “inhibition of the adhesion of rDIII on endothelial cells (immunocytochemistry)” value in series [1] is recorded as “able to inhibit the adhesion of rDIII on the endothelial cells”. In series [2], the hemolysis is less than 0.15%.

(Values after PMC8505397, “Development of peptides targeting receptor binding site of the envelope glycoprotein to contain the West Nile virus infection” (Scientific Reports, 2021).)
